Measured values as given in patent publication US20090233958A1, “(+)-BELOXEPIN AND METHODS FOR ITS SYNTHESIS AND USE” (priority 2008, published 2009).
Like-named read-outs stand apart in the source and are kept apart here.

Experiments:
NET = biological target: T1, NET (Rattus norvegicus, UniProt Q63380); test: NE uptake inhibition assay, rat hypothalamus synaptosomes; format: biochemical; conditions: read-out: NET IC50 (norepinephrine reuptake inhibition)
T1 construct: from tissue; host or cells: rat hypothalamus synaptosomes
T1 sequence (Q63380 1-617): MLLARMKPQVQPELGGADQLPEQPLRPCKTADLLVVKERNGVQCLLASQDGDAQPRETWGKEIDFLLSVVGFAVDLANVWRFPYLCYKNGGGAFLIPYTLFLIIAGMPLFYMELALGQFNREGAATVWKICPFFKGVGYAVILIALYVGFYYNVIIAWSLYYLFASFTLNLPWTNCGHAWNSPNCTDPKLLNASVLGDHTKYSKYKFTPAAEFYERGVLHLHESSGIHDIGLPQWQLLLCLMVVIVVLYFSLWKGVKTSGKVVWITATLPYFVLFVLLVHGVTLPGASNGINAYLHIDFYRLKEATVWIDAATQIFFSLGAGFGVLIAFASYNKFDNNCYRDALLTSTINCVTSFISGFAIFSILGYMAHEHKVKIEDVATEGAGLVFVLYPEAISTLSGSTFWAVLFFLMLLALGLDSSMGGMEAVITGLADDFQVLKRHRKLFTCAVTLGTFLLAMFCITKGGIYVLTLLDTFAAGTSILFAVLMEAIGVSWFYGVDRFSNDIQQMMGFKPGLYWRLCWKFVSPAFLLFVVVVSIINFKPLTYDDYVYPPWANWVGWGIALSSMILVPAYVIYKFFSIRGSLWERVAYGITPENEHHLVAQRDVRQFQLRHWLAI

[1] = system: noradrenergic, histaminergic and cholinergic receptors; conditions: Sperling & Demling 1997; cited from earlier work
5HT2C receptor = biological target: T2, 5HT2C receptor (Homo sapiens, UniProt P28335); conditions: Claghorn & Lesem 1996; cited from earlier work
T2 sequence (P28335 33-458): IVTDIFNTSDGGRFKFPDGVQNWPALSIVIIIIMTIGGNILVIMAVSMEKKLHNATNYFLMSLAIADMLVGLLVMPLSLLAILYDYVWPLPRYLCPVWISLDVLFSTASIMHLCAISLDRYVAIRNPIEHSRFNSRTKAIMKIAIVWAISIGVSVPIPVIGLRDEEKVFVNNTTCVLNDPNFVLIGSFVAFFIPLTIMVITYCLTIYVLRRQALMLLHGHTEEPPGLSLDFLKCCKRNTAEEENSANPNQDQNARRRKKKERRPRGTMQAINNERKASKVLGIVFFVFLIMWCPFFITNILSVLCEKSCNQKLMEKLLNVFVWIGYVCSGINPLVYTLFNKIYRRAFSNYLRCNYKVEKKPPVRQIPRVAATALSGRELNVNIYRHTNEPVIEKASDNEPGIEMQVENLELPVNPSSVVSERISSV

[2] = system: animal models of depression; conditions: cited from earlier work
REM sleep = conditions: 25-400 mg, cited from earlier work
[3] = cited from earlier work
depression = conditions: based on HAMD score reduction; cited from earlier work
major depression = conditions: subsequent clinical trials; Paanakker et al. 1998; cited from earlier work
L5 SNL rats = test: L5-Single Nerve Ligation model of neuropathic pain, tactile allodynia (von Frey); format: in vivo, rat; conditions: for antiallodynic effect: 8 days post surgery, 30 min post treatment, FIG. 1; for antiallodynic effect over time: tested 30, 60, 120, 240 min
Protocol: Protocol. The antiallodynic activity of (+)- and (−)-beloxepin were tested in vivo using the L5-Single Nerve Ligation model of non-nociceptive neuropathic pain as described in LaBuda & Little, 2005, J. Neurosci. Methods 144:175-181. The test animals were placed in a Plexiglas chamber (10 cm×20 cm×25 cm) and habituated for 15 minutes. The chamber was positioned on top of a mesh screen so that von Frey monofilaments could be presented to the plantar surface of both hindpaws. Measurement of tactile sensitivity for each hind paw were obtained using the up/down method (Dixon, 1980, Annu. Rev. Pharmacol. Toxicol. 20:441-462) with seven Frey monofilaments (0.4, 1, 2, 4, 6, 8 and 15 grams). Each trial started with a von Frey force of 2 grams delivered to the right hind paw for approximately 1-2 seconds and then the left hind paw. If there was no withdrawal response, the next higher force was delivered. If there was a response, the next lower force was delivered. This procedure was performed until no response was made at the highest force (15 grams) or until four stimuli were administered following the initial response. The 50% paw withdrawal threshold for each paw was calculated using the following formula: [Xth]log=[vFr]log+ky, where [vFr] is the force of the last von Frey used, k=0.2249 which is the average interval (in log units) between the von Frey monofilaments, and y is a value that depends upon the pattern of withdrawal responses (Dixon, 1980, supra). […] Testing for tactile sensitivity was performed twice and the mean 50% withdrawal value assigned as the tactile sensitivity for the right and left paws for each animal.
Results. The antiallodynic effects produced by (+)-beloxepin (30 mg/kg IP) and (−)-beloxepin (30 mg·kg IP) in L5 SNL rats 8 days post surgery are illustrated in FIG. 1. In this experiment, at 8 days post surgery, rats were treated with vehicle or beloxepin enantiomers (30 mg/kg IP) and tested for tactile allodynia at 30 min post treatment. […] No side effects were observed following treatment with either enantiomer.
The antiallodynic effects produced by (+)-beloxepin (30 mg/kg IP) in L5 SNL rats 14 days post surgery are illustrated in FIG. 2. In this experiment, at 14 days post surgery, rats were treated with vehicle or (+)-beloxepin and tested for tactile allodynia at 30, 60, 120 and 240 min post treatment. Vehicle treated rats were tested at 30 min post treatment.
Protocol. A time course experiment was performed with (−)-beloxepin (60 mg/kg PO) in L5 SNL rats at 7 days post-surgery. Rats were tested at 30, 60, 120, and 240 minutes post-drug.
Protocol. A time course experiment was also performed with (+)-beloxepin (60 mg/kg PO) in L5 SNL rats at 14 days post-surgery. Rats were tested at 30, 60, 120, and 240 minutes post-drug.

[4] = system: rat hindpaw incision model; test: Rat hindpaw incision model of post-operative pain, tactile allodynia; format: in vivo; conditions: 30 mg/kg IP, 24 hours post-surgery, tested 30, 60, 120, 240 min
Protocol: Protocol. A time course experiment was also performed with (−)-beloxepin in the hindpaw incision model. At 24 hours post-surgery, rats received vehicle or (−)-beloxepin (30 mg/kg IP). Rats were tested for tactile allodynia at 30, 60, 120 and 240 minutes after administration of (−)-beloxepin.
Protocol. Another time course experiment was performed with (+)-beloxepin in the hindpaw incision model. At 24 hours post-surgery, rats received vehicle or (+)-beloxepin (30 mg/kg IP). Rats were tested for tactile allodynia at 30, 60, 120 and 240 minutes after administration of (+)-beloxepin.

[5] = system: rat 50° C. hot plate model; test: Rat 50° C. hot plate assay; format: in vivo; conditions: for antinociceptive activity: 30 mg/kg IP, 30, 60 and 120 minutes after treatment
Protocol: Protocol. Rats were treated with vehicle, 30 mg/kg IP of (−)-beloxepin, or 30 mg/kg IP of (+)-beloxepin and then were placed on a hot plate (50° C.) 30, 60, or 120 minutes after administration of the vehicle or beloxepin enantiomer. Rats treated with 3 mg/kg SC of morphine and tested 30 min post-treatment were used as a positive control in these experiments.

## Cc1cccc2c1Oc1ccccc1C1(O)CCN(C)CC21 (racemic) [(±)-beloxepin, cis-1,2,3,4,4a,13b-hexahydro-2,10-dimethyldiben-[2,3:6,7]oxepino[4,5c]pyridine-4-a-ol]]
NET
  IC50: 130 nM
[1]
  affinity for noradrenergic, histaminergic and cholinergic receptors: no or very weak affinity
5HT2C receptor
  affinity for the 5HT2C receptor: modest affinity
[2]; acquired immobility, reserpine-induced hypothermia, conditioned avoidance
  antidepressant properties: exhibit antidepressant properties
[2]; preclinical depression tests
  sedation, motor impairment or other side effects: did not cause sedation, motor impairment or other untoward side effects
REM sleep; EEG
  total duration of nocturnal REM sleep: decreased
REM sleep; acutely and sub-chronically, EEG
  REM latency: dose-dependently prolonged REM latency
REM sleep; human volunteers
  sedation or other side effects: No sedation or other side effects were observed
[3]; healthy volunteers, up to 800 mg/day
  adverse effects: No important adverse effects were observed
[3]; steady-state, doses of 50 to 800 mg, healthy normal subjects
  tmax: 1.17 h
depression
  fraction of patients with moderate to good response: ⅔
Major depression
  efficacy for the treatment of major depression: insufficient efficacy

## Cc1cccc2c1Oc1ccccc1C1(O)CCN(C)CC21 (single isomer, unassigned; (+)) [(+)-beloxepin]
L5 SNL rats; 30 mg/kg IP
  antiallodynic effect: not statistically significant, (+)-beloxepin produced an antiallodynic effect that was comparable to that observed with (−)-beloxepin
L5 SNL rats; 30 mg/kg IP, 14 days post surgery
  maximal efficacy, % of the threshold of vehicle-treated rats: 423%
L5 SNL rats; 30 mg/kg IP, 14 days post surgery, FIG. 2
  antiallodynic effect over time: significant antiallodynic effects at the 30 and 60 min time points
L5 SNL rats; 60 mg/kg PO, 14 days post-surgery, FIG. 4
  antiallodynic effect over time: did not produce significant antiallodynic effects at any time point
[4]
  antiallodynic effect over time: significant antiallodynic effect at the 30 and 60 minute time points
[5]; 30 mg/kg IP, 30, 60, 120 min, FIG. 8
  antinociception, % MPE values: 10-17%
[5]
  antinociceptive activity: no antinociception was observed

## Cc1cccc2c1Oc1ccccc1C1(O)CCN(C)CC21 (single isomer, unassigned; (-)) [(−)-beloxepin]
NET; [3H]norepinephrine, rat hypothalamus synaptosomes, 20 min 37° C.
  IC50: 120 nM
L5 SNL rats; 30 mg/kg IP
  antiallodynic effect: significant antiallodynia
L5 SNL rats; 60 mg/kg PO, 7 days post-surgery, FIG. 3
  antiallodynic effect over time: significant antiallodynic effects at the 60 and 120 minute time points
[4]
  antiallodynic effect over time: significant antiallodynic effect at the 30 and 120 minute time point
[5]
  antinociceptive activity: robust antinociceptive activity at 30, 60, and 120 minutes after treatment
